What was measured:
[1] = test system: AMBEL; test: greenhouse experiment, pre-emergence, mixtures (Example 2, Colby); type: in vivo, Ambrosia artemisiifolia
Text: (§1) The culture containers used were plastic pots containing loamy sand with approximately 3.0% of humus as substrate. The seeds of the test plants were sown separately for each species.
(§2) For the pre-emergence treatment, the active compounds, suspended or emulsified in water, were applied directly after sowing by means of finely distributing nozzles. The containers were irrigated gently to promote germination and growth and subsequently covered with transparent plastic hoods until the plants had rooted. This cover caused uniform germination of the test plants unless this was adversely affected by the active compounds.
(§3) Depending on the species, the plants were kept at 10-25° C. and 20-35° C., respectively. The test period extended over 2 to 4 weeks. During this time, the plants were tended and their response to the individual treatments was evaluated.
(§4) Evaluation was carried out using a scale from 0 to 100. 100 means no emergence of the plants, or complete destruction of at least the above-ground parts, and 0 means no damage or normal course of growth. Good herbicidal activity is given at values of at least 70, and very good herbicidal activity is given at values of at least 85.
(§5) The respective stated components A and B, and if appropriate, C were formulated as a 10% by weight strength emulsion concentrate and, with addition of the amount of solvent system, introduced into the spray liquor used for applying the active compound. In the examples, the solvent used was water.
(§6) The test period extended over 20 and 21 days, respectively. During this time, the plants were tended, and their reaction to the treatment with active compound was monitored.
(§7) In the examples below, using the method of S. R. Colby (1967) “Calculating synergistic and antagonistic responses of herbicide combinations”, Weeds 15, p. 22ff., the value E, which is expected if the activity of the individual active compounds is only additive, was calculated. E=X+Y−(X·Y/100) • where • X=percent activity using active compound A at an application rate a; • Y=percent activity using active compound B at an application rate b; • E=expected activity (in %) by A+B at application rates a+b.
(§8) If the value found experimentally is higher than the value E calculated according to Colby, a synergistic effect is present.

[2] = test system: ERBVI; test: greenhouse experiment, post-emergence, mixtures (Example 2, Colby); type: in vivo, Eriochloa villosa
Description: as §1
(§9) For the post-emergence treatment, the test plants were grown to a plant height of from 3 to 15 cm, depending on the plant habit, and only then treated with the active compounds which had been suspended or emulsified in water. To this end, the test plants were either sown directly and grown in the same containers, or they were first grown separately as seedlings and transplanted into the test containers a few days prior to treatment.
(§10) Depending on the species, the plants were kept at 10-25° C. and 20-35° C., respectively. […] During this time, the plants were tended and their response to the individual treatments was evaluated. […]
as §6
(§11) In the examples below, using the method of S. R. Colby (1967) “Calculating synergistic and antagonistic responses of herbicide combinations”, Weeds 15, p. 22ff., the value E, which is expected if the activity of the individual active compounds is only additive, was calculated. […]
as §8

[3] = test system: SETFA; test: as above; type: in vivo, Setaria faberi
Description: as §1, §9, §10, §6, §11, §8

[4] = test system: SORHA; test: greenhouse experiment, pre-emergence, mixtures (Example 2, Colby); type: in vivo, Sorghum halepense
Text: as §1, §2, §10, §6, §11, §8

[5] = test system: AMARE; test: as above; type: in vivo, Amaranthus retroflexus
Text: as §1, §2, §3, §4, §5, §6, §11, §8

[6] = test system: CHEAL; test: as above; type: in vivo, Chenopodium album
Text: as §1, §2, §3, §4, §5, §6, §7, §8

[7] = test system: SORPHA; test: greenhouse experiment, post-emergence, mixtures (Example 2, Colby); type: in vivo, Sorghum halepense
Description: as §1, §9, §10, §6, §11, §8

[8] = test system: BIDPI; test: greenhouse experiment, pre-emergence, mixtures (Example 2, Colby); type: in vivo, Bidens pilosa
Text: as §1, §2, §10, §6, §11, §8

[9] = test system: ELEIN; test: as above; type: in vivo, Eleusine indica
Text: as §1, §2, §10, §6, §11, §8

[10] = test system: BRAPL; test: greenhouse experiment, post-emergence, mixtures (Example 2, Colby); type: in vivo, Brachiaria plantaginea
Description: as §1, §9, §3, §4, §5, §6, §11, §8

[11] = test system: ALOMY; test: as above; type: in vivo, Alopercurus myosuroides
Description: as §1, §9, §10, §6, §11, §8

[12] = test system: ECHCG; test: as above; type: in vivo, Echinocloa crus-galli
Description: as §1, §9, §10, §6, §11, §8

[13] = test system: SETVI; test: greenhouse experiment, pre-emergence, mixtures (Example 2, Colby); type: in vivo, Setaria viridis
Text: as §1, §2, §10, §6, §11, §8

[14] = test system: ECHCG; test: as above; type: in vivo, Echinocloa crus-galli
Text: as §1, §2, §10, §6, §11, §8

[15] = test system: ALOMY; test: as above; type: in vivo, Alopercurus myosuroides
Text: as §1, §2, §10, §6, §11, §8

[16] = test system: POLCO; test: as above; type: in vivo, Polygonum convolvulus
Text: as §1, §2, §10, §6, §11, §8

[17] = test system: BRAPL; test: greenhouse experiment, post-emergence treatment (Use Examples); type: in vivo, Brachiaria plantaginea; conditions: post-emergence method; application rate 0.025 kg/ha; scale 0 to 100
Text: (§12) The culture containers used were plastic flowerpots containing loamy sand with approximately 3.0% of humus as the substrate. The seeds of the test plants were sown separately for each species.
(§13) For the post-emergence treatment, the test plants were first grown to a height of 3 to 15 cm, depending on the plant habit, and only then treated with the active ingredients which had been suspended or emulsified in water. For this purpose, the test plants were either sown directly and grown in the same containers, or they were first grown separately as seedlings and transplanted into the test containers a few days prior to treatment.
(§14) Depending on the species, the plants were kept at 10-25° C. or 20-35° C. The test period extended over 2 to 4 weeks. During this time, the plants were tended, and their response to the individual treatments was evaluated.
(§15) Evaluation was carried out using a scale from 0 to 100. 100 means no emergence of the plants, or complete destruction of at least the aerial moieties, and 0 means no damage, or normal course of growth. A good herbicidal activity is given at values of at least 70 and a very good herbicidal activity is given at values of at least 85.

[18] = test system: AMBEL; test: greenhouse experiment, pre-emergence treatment (Use Examples); type: in vivo, Ambrosia elatior; conditions: pre-emergence method; application rate 0.050 kg/ha; scale 0 to 100
Text: as §12
as §2, with “active ingredients, which had been” for “active compounds,”, “test plants,” for “test plants”, “this has been impaired” for “this was adversely affected”, “active ingredients.” for “active compounds.”
as §14, §15

[19] = test system: ERBVI; test: greenhouse experiment, pre-emergence, mixtures (Example 2, Colby); type: in vivo, Eriochloa villosa
Text: as §1, §2, §10, §6, §11, §8

[20] = test system: SETFA; test: greenhouse experiment, post-emergence treatment (Use Examples); type: in vivo, Setaria faberi; conditions: post-emergence method; application rate 0.025 kg/ha; scale 0 to 100
Text: as §12, §13, §14, §15

[21] = test system: BRAPL; test: greenhouse experiment, pre-emergence, mixtures (Example 2, Colby); type: in vivo, Brachiaria plantaginea
Text: as §1, §2, §10, §6, §11, §8

## CC(C)N(C)S(=O)(=O)NC(=O)c1cc(-n2c(=O)cc(C(F)(F)F)n(C)c2=O)c(F)cc1Cl [B.76, saflufenacil, reference compound]
[1]; B.76 6.25 g/ha a.s.
  herbicidal activity against AMBEL found: 75%
[2]; B.76 12.5 g/ha a.s.
  herbicidal activity against ERBVI found: 60%
[3]; B.76 12.5 g/ha a.s.
  herbicidal activity against SETFA found: 30%
[4]; B.76 6.25 g/ha a.s.
  herbicidal activity against SORHA found: 0%
[5]; B.76 3.12 g/ha a.s.
  herbicidal activity against AMARE found: 35%
[6]; B.76 3.12 g/ha a.s.
  herbicidal activity against CHEAL found: 30%
[7]; B.76 12.5 g/ha a.s.
  herbicidal activity against SORPHA found: 25%
[8]; B.76 6.25 g/ha a.s.
  herbicidal activity against BIDPI found: 60%
[9]; B.76 6.25 g/ha a.s.
  herbicidal activity against ELEIN found: 30%
[10]; B.76 12.5 g/ha a.s.
  herbicidal activity against BRAPL found: 30%

## O=C(O)CNCP(=O)(O)O [B.95, glyphosate, reference compound]
[11]; B.95 135 g/ha a.s.
  herbicidal activity against ALOMY found: 80%
[12]; B.95 135 g/ha a.s.
  herbicidal activity against ECHCG found: 85%
[10]; B.95 135 g/ha a.s.
  herbicidal activity against BRAPL found: 95%

## COC[C@H](C)N(C(=O)CCl)c1c(C)csc1C [B.106, dimethenamid-p, reference compound]
[5]; B.106 15 g/ha a.s.
  herbicidal activity against AMARE found: 75%
[6]; B.106 15 g/ha a.s.
  herbicidal activity against CHEAL found: 10%
[13]; B.106 15 g/ha a.s.
  herbicidal activity against SETVI found: 70%
[14]; B.106 15 g/ha a.s.
  herbicidal activity against ECHCG found: 85%

## CCC(CC)Nc1c([N+](=O)[O-])cc(C)c(C)c1[N+](=O)[O-] [B.101, pendimethalin, reference compound]
[15]; B.101 400 g/ha a.s.
  herbicidal activity against ALOMY found: 75%
[16]; B.101 400 g/ha a.s.
  herbicidal activity against POLCO found: 40%

## C#CCN1C(=O)C(F)(F)Oc2cc(F)c(-n3c(=O)n(C)c(=S)n(C)c3=O)cc21 [I.a.35, 1,5-dimethyl-6-thioxo-3-(2,2,7-trifluoro-3-oxo-4-(prop-2-ynyl)-3,4-dihydro-2H-benzo [b][1,4]oxazin-6-yl)-1,3,5-triazinane-2,4-dione]
[1]; I.a.35 12.5 g/ha a.s.
  herbicidal activity against AMBEL found: 60%
[1]; I.a.35 25 g/ha a.s.
  herbicidal activity against AMBEL found: 75%
[17]
  herbicidal activity against BRAPL: very good (a very good herbicidal activity is given at values of at least 85)
[11]; I.a.35 12.5 g/ha a.s.
  herbicidal activity against ALOMY found: 30%
[12]; I.a.35 12.5 g/ha a.s.
  herbicidal activity against ECHCG found: 75%
[2]; I.a.35 12.5 g/ha a.s.
  herbicidal activity against ERBVI found: 70%
[3]; I.a.35 12.5 g/ha a.s.
  herbicidal activity against SETFA found: 75%
[4]; I.a.35 12.5 g/ha a.s.
  herbicidal activity against SORHA found: 60%
[5]; I.a.35 3.12 g/ha a.s.
  herbicidal activity against AMARE found: 70%
[15]; I.a.35 25 g/ha a.s.
  herbicidal activity against ALOMY found: 65%
[18]
  herbicidal activity against AMBEL: very good (a very good herbicidal activity is given at values of at least 85)
[19]; I.a.35 25 g/ha a.s.
  herbicidal activity against ERBVI found: 55%
[6]; I.a.35 3.12 g/ha a.s.
  herbicidal activity against CHEAL found: 85%
[6]; I.a.35 6.25 g/ha a.s.
  herbicidal activity against CHEAL found: 85%
[16]; I.a.35 25 g/ha a.s.
  herbicidal activity against POLCO found: 65%
[13]; I.a.35 12.5 g/ha a.s.
  herbicidal activity against SETVI found: 90%
[7]; I.a.35 12.5 g/ha a.s.
  herbicidal activity against SORPHA found: 80%
[8]; I.a.35 12.5 g/ha a.s.
  herbicidal activity against BIDPI found: 30%
[14]; I.a.35 12.5 g/ha a.s.
  herbicidal activity against ECHCG found: 30%
[9]; I.a.35 12.5 g/ha a.s.
  herbicidal activity against ELEIN found: 45%
[10]; I.a.35 12.5 g/ha a.s.
  herbicidal activity against BRAPL found: 65%
[20]
  herbicidal activity against SETFA: very good (a very good herbicidal activity is given at values of at least 85)
[21]; I.a.35 25 g/ha a.s.
  herbicidal activity against BRAPL found: 50%

## Cn1nc(C(F)(F)F)c(CS(=O)(=O)C2=NOC(C)(C)C2)c1OC(F)F [B.116, pyroxasulfone, reference compound]
[1]; B.116 6.25 g/ha a.s.
  herbicidal activity against AMBEL found: 0%
[19]; B.116 6.25 g/ha a.s.
  herbicidal activity against ERBVI found: 45%
[21]; B.116 6.25 g/ha a.s.
  herbicidal activity against BRAPL found: 30%
